Laboratory results: patent publication US6982286B2, “Carbocyclic hydrazino inhibitors of copper-containing amine oxidases” (Biotie Therapies Corp., priority 2001, dated 2006)
Where a name gives a salt, the structure may show the parent alone.

Key:
[1] = target: T1, Recombinant human VAP-1 SSAO (Homo sapiens, UniProt Q16853); test: In vitro inhibition of VAP-1 SSAO activity (coupled colourimetric method); format: biochemical; conditions: for Selectivity for VAP-1 SSAO over MAO: ratio of total rat MAO IC50 to human VAP-1 SSAO IC50; for IC50: recombinant human VAP-1 SSAO in CHO cell lysate, 1 mM benzylamine, pH 7.6, 37° C., read-out: VAP-1 SSAO inhibitory activity IC50
T1 construct: expressed in transfected cells; host or cells: Chinese Hamster Ovary (CHO) cells; NP40 lysate supernatant used directly
T1 sequence (Q16853 1-763): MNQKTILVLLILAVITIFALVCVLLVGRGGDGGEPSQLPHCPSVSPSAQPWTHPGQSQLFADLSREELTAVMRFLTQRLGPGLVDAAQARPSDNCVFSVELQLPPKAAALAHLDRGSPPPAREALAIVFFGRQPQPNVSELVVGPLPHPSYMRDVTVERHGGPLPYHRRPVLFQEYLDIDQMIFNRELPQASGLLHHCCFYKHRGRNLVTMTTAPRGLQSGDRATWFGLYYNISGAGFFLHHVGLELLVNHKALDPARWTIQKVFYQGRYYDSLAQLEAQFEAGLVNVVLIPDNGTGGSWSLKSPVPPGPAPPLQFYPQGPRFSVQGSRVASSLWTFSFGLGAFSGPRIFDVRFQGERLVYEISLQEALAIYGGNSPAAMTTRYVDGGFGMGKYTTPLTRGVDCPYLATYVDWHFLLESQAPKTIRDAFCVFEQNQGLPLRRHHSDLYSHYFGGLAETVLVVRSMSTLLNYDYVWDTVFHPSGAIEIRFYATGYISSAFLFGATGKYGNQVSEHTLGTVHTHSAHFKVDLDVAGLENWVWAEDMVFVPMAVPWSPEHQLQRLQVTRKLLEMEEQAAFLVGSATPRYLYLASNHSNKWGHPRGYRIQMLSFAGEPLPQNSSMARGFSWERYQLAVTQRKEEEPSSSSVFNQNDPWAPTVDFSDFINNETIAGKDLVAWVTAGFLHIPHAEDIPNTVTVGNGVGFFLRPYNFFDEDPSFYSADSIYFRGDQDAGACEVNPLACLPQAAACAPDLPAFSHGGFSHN
Description: VAP-1 SSAO activity was measured using the coupled colourimetric method essentially as described for monoamine oxidase and related enzymes (Holt, A., et al., Anal. Biochem. 244:384-392 (1997)). Recombinant human VAP-1 SSAO expressed in Chinese Hamster Ovary (CHO) cells was used as a source of VAP-1 SSAO for activity measurements. Native CHO cells have negligible SSAO activity. These cells and their culture have previously been described (Smith, D. J., et al., J. Exp. Med. 188:17-27 (1998)). A cell lysate was prepared by suspending approximately 3.6×10^8 cells in 25 ml lysis buffer (150 mM NaCl, 10 mM Tris-Base pH 7.2, 1.5 mM MgCl2, 1% NP40) and incubating at 4° C. overnight on a rotating table. The lysate was clarified by centrifugation at 18000 g for 5 min at room temperature and the supernatant used directly in the assay. The VAP1 SSAO assay was performed in 96 well microtitre plates as follows. To each well was added a predetermined amount of inhibitor if required. The amount of inhibitor varied in each assay but was generally at a final concentration of between 1 nM and 50 μM. Controls lacked inhibitor. The inhibitor was in total volume of […] in water. The following reagents were then added. 0.2M potassium phosphate buffer pH 7.6 to a total reaction volume of 200 μl, 45 μl of freshly made chromogenic solution containing 1 mM 2,4-dichlorophenol, 500 μM 4-aminoantipyrine and 4 U/ml horseradish peroxidase and an amount of CHO cell lysate containing VAP-1 SSAO that caused a change of 0.6 A490 per h. This was within the linear response range of the assay. The plates were incubated for 30 min at 37° C. and the background absorbance measured at 490 nm using a Wallac Victor II multilabel counter. To initiate the enzyme reaction 20 μl 10 mM benzylamine (final concentration=1 mM) was added and the plate incubated for 1 h at 37° C. The increase in absorbance, reflecting VAP-1 SSAO activity, was measured at490 nm. Inhibition was presented as percent inhibition compared to control after correcting for background absorbance and IC50 values calculated using GraphPad Prism.

Row | melting point | Selectivity for VAP-1 SSAO over MAO [1] | IC50 [1] | Selectivity for VAP-1 SSAO over MAO ([1]; fumarate) | Selectivity for VAP-1 SSAO over MAO ([1]; succinate) | Compound
1 | 113 to 115 °C |  |  |  |  | CO[C@H]1c2ccccc2C[C@@H]1N(C)N (as salt: maleate) [Compound 19, (1S,2S)-2-(1-methylhydrazino)-1-methoxyindane Hydrogenmaleate]
2 |  |  | 660 nM |  | 23 | CN(N)[C@@H]1Cc2ccccc2[C@H]1O [Compound 10, (1R,2R)-2-(1-methylhydrazino)-1-indanol succinate]
3 |  | 31 | 710 nM |  |  | CN(N)[C@H]1Cc2ccccc2[C@@H]1O [Compound 11, (1S,2S)-2-(1-methylhydrazino)-1-indanol (S,S)-tartrate]
4 |  | 30 | 660 nM |  |  | CN(N)[C@@H]1Cc2ccccc2[C@H]1O [Compound 12, (1R,2R)-2-(1-methylhydrazino)-1-indanol (S,S)-tartrate]
5 |  | 29 | 660 nM |  |  | CN(N)[C@H]1Cc2ccccc2[C@@H]1O [Compound 13, (1S,2S)2-(1-methylhydrazino)-1-indanol (R,R)-tartrate]
6 |  | 28 | 710 nM |  |  | CN(N)[C@@H]1Cc2ccccc2[C@H]1O [Compound 14, (1R,2R)-2-(1-methylhydrazino)-1-indanol (R,R)-tartrate]
7 |  | 3 | 4320 nM |  |  | CO[C@H]1c2ccccc2C[C@@H]1N(C)N [Compound 19, (1S,2S)-2-(1-methylhydrazino)-1-methoxyindane Hydrogenmaleate]

More lines, now with the values behind:

Row | Compound | melting point | Selectivity for VAP-1 SSAO over MAO [1] | IC50 [1] | Selectivity for VAP-1 SSAO over MAO ([1]; fumarate) | Selectivity for VAP-1 SSAO over MAO ([1]; succinate)
8 | CN(N)[C@H]1Cc2ccccc2[C@@H]1O (as salt: maleate) [Compound 1, (1S,2S)-2-(1-methylhydrazino)-1-indanol hydrogenmaleate] | 104 to 106 °C |  |  |  | 
9 | CN(N)[C@@H]1Cc2ccccc2[C@H]1O (as salt: maleate) [Compound 6, (1R,2R)-2-(1-methylhydrazino)-1-indanol hydrogenmaleate] | 104 to 106 °C |  |  |  | 
10 | CCN(N)[C@@H]1Cc2ccccc2[C@H]1O (racemic) [Compound 2, (1R*,2R*)-2-(1-Ethylhydrazino)-1-indanol hydrogenmaleate] |  | 4 | 5300 nM |  | 
11 | CN(N)[C@@H]1Cc2ccccc2[C@H]1O (relative stereo) [Compound 4, (1R,*2R*)-2-(1-Methylhydrazino)-1-indanol hydrogenmaleate] |  | 32 | 660 nM |  | 
12 | CN(N)[C@H]1Cc2ccccc2[C@@H]1O [Compound 1, (1S,2S)-2-(1-methylhydrazino)-1-indanol hydrogenmaleate] |  | 31 | 700 nM |  | 
13 | CN(N)[C@@H]1Cc2ccccc2[C@H]1O [Compound 6, (1R,2R)-2-(1-methylhydrazino)-1-indanol hydrogenmaleate] |  | 29 | 650 nM |  | 
14 | CN(N)[C@H]1Cc2ccccc2[C@@H]1O [Compound 7, (1S,2S)-2-(1-methylhydrazino)-1-indanol fumarate] |  |  | 470 nM | 28 | 
15 | CN(N)[C@@H]1Cc2ccccc2[C@H]1O [Compound 8, (1R,2R)-2-(1-methylhydrazino)-1-indanol fumarate] |  |  | 560 nM | 21 | 
16 | CN(N)[C@H]1Cc2ccccc2[C@@H]1O [Compound 9, (1S,2S)-2-(1-methylhydrazino)-1-indanol succinate] |  |  | 620 nM |  | 26
